In patent US6576612B1, “Antitumor therapy comprising distamycin derivatives” (Pharmacia Italia S.p.A., priority 2000, dated 2003):

System: solid tumors
Assay: Phase I pharmacological trial, iv single administration every three weeks
Format: in vivo, patients
Conditions: one patient suffering from gastrointestinal sarcoma, dose level 5.1 mg/m^2, iv infusion
Protocol: A phase I pharmacological trial was carried out to investigate the iv administration of the title compound given as a single administration every three weeks to patients with solid tumors.
The starting dose of 0.85 mg/m^2 was initially escalated in an accelerated design (100% dose increase, 1 patient/dose level) and then by a conventional dose escalation in 3-6 patient cohorts. 11 patients have been entered so far and 25 cycles have been evaluated for toxicity at dose levels of 0.85, 1.7, 3.4, 5.1 and 7.5 mg/m^2.

C=C(Br)C(=O)Nc1cc(C(=O)Nc2cc(C(=O)Nc3cc(C(=O)Nc4cc(C(=O)NCCNC(=N)N)n(C)c4)n(C)c3)n(C)c2)n(C)c1.Cl [PNU 166196, N-(5-{[(5-{[(5-{[(2-{[amino(imino)methyl]amino}ethyl)amino]carbonyl}-1-methyl-1H-pyrrol-3-yl)amino]carbonyl}-1-methyl-1H-pyrrol-3-yl)amino]carbonyl}-1-methyl-1H-pyrrol-3-yl)-4-[(2-bromoacryloyl)amino]-1-methyl-1H-pyrrole-2-carboxamide hydrochloride]
tumor response: partial response
